In the SangsterLogP compilation one finds logP and logD data, which are given here for 20 compounds.

Data set [1] in a line: method code SF-HPLC, from DOI: 10.1016/0005-2728(88)90027-8, PMID: 3196713. Conditions: pH 2.2.

SMILES strings stand for the structures.

In turn, `Cc1cc(Br)ccc1NC(=O)c1cc(F)ccc1O` registered a logP of 5.15.

In turn, `O=C(Nc1ccc(F)cc1F)c1cc(Br)cc(Br)c1O` had a logP of 4.99.

With `O=C(Nc1ccc(Cl)cc1)c1ccccc1O`, the logP is 4.29.

The compound `O=C(Nc1ccc(Cl)cc1)c1cc(Br)ccc1O` gave a logP of 5.02.

Regarding `O=C(Nc1ccc(F)cc1F)c1cc(Cl)cc(Cl)c1O`, the log partition coefficient (logP) came out at 4.55.

In turn, `O=C(Nc1ccc(F)cc1)c1cc(Cl)cc(Cl)c1O` came in with a logD in data set [1] of 4.76.

In the case of `O=C(Nc1ccc(Cl)cc1[N+](=O)[O-])c1cc(Br)cc(Br)c1O`, the lipophilicity (logP) turned out to be 5.05.

As for `O=C(Nc1ccccc1Cl)c1ccccc1O`, in data set [1], the pH-dependent lipophilicity (logD) is 4.35.

`Cc1cc(Cl)ccc1NC(=O)c1ccccc1O` had a log partition coefficient (logP) of 5.18.

As for `O=C(Nc1ccc(Cl)cc1[N+](=O)[O-])c1ccccc1O`, the lipophilicity (logP) worked out at 4.02.

Regarding `O=C(Nc1ccc(Cl)cc1Cl)c1ccccc1O`, the logP was determined as 5.49.

In turn, `O=C(Nc1ccccc1)c1cc(Cl)ccc1O` showed a log partition coefficient (logP) of 3.98.

With `Cc1cc(Cl)ccc1NC(=O)c1cc(F)ccc1O`, the lipophilicity (logP) is 4.89.

In turn, `O=C(Nc1ccc(Cl)cc1[N+](=O)[O-])c1cc(Cl)cc(Cl)c1O` registered a logP of 5.08.

Compound `Cc1cc([N+](=O)[O-])ccc1NC(=O)c1cc(Cl)cc(Cl)c1O` registered a log partition coefficient (logP) of 4.51.

Turning to `O=C(Nc1ccc(Br)cc1)c1ccccc1O`, the logP was found to be 4.51.

The compound `O=C(Nc1ccccc1[N+](=O)[O-])c1ccccc1O` had a logP of 2.87.

In data set [1], `Cc1ccccc1NC(=O)c1cc(Cl)ccc1O` showed a logD of 4.21.

The compound `O=C(Nc1ccccc1)c1cc(Cl)cc(Cl)c1O` had a logP of 4.01.

`O=C(Nc1ccc(Cl)cc1)c1cc(Cl)cc(Cl)c1O` yielded a lipophilicity (logP) of 5.15.
